{
  "source": "paper doi:10.1101/2025.09.29.679234",
  "about": "“Engineered antimicrobial-derived peptides to manipulate mixed microbial systems” (bioRxiv, 2025)",
  "key": {"L. coryniformis [1]": {"test_system": "L. coryniformis", "assay": "Kill curve (growth at 600 nm after 24 h)", "assay_type": "cell-based, Lactobacillus coryniformis", "conditions": "Figure 1C, start OD600 0.05, 96-well plate, 3 pM to 3 μM, 10-fold serial dilutions", "experimental": "(§1) To determine the potency of the purified pediocin PA-1, we generated kill-curves against a range of target bacteria (Figure 1B). The concentration range tested was 3 pM to 3 μM following 10-fold serial dilutions. […] This is in approximate agreement with the published potency of pediocin PA-1 [28] . Though the molecular mass of pediocin PA-1 is expected to be 4.5 kDa, we observed the partially purified peptide to migrate with an apparent mass of ~12.5 kDa (Figure 1B). However, subsequent analysis by LC-MS yielded peaks of multiple m/z with the predominant peak at the expected molecular size of 4.6 kDa (Figure S4). The purified pediocin PA-1, separated on denaturing but non-reducing SDS-PAGE (since this bacteriocin contains two crucial disulfide bonds), was subjected to agar-overlay assay using L. seeligeri as indicator organism (Figure S5).\n(§2) The antimicrobial spectrum of pediocin PA-1 was assayed using a kill curve. Cultures grown overnight were resuspended in fresh medium at an OD600 of 0.05. EC50 was determined by incubating cells with varying concentrations of pediocin in a 96-well plate, and growth was measured at 600 nm after 24 h."}, "L. coryniformis [2]": {"test_system": "L. coryniformis", "assay": "Cell-binding assay by flow cytometry", "design": "species or system Lactobacillus coryniformis", "experimental": "(§3) The binding affinity and avidity of pediocin to various Gram-positive and Gram-negative bacteria were studied using flow cytometry. Late log-phase cells were washed in the sodium phosphate buffer (5 mM, pH 6.0) and resuspended at an OD600 of 10^–3 in sodium-acetate buffer (25 mM, pH 4.0), sodium phosphate buffer (5 mM, pH 6.0) or sodium phosphate buffer (5mM, pH 7.4) containing 1 % BSA (bovine serum albumin) and 100 mM NaCl. Cells were incubated with varying concentrations of the conjugated peptide at 4 °C for 30 min. The unbound peptide was removed by centrifugation, and the pellet was resuspended in their respective binding containing 1 % BSA. Flow cytometry was performed on an Attune NxT flow cytometer (Life Technologies/ThermoFisher Scientific, Carlsbad, CA). Data (≥10^4 events were recorded) was recorded using a […] (488 nm) voltage of 360 V, gating was performed on SSC-A versus SSC-H plot to reduce false events."}, "indicator strains": {"test_system": "indicator strains", "assay": "Agar-well diffusion assay, specific activity of the purified peptide", "assay_type": "cell-based", "conditions": "agar-well diffusion method; peptide after cell adsorption-desorption and dialysis, purified 189-fold", "experimental": "Pediocin PA-1 is known to display narrow-spectrum activity against only a few species that include Lactobacillus coryniformis B-4390 and various Listeria species. We re-tested the antimicrobial spectrum of the pediocin PA-1 producer strain, Pediococcus acidilactici UL5, using agar-well diffusion assays against a few representative members of lactic acid bacteria (LAB) and Gram-negative, E. coli DH5α as a control (Figure S1). The effectiveness of the spent cell-free culture medium was evaluated by its ability to inhibit growth of the indicator strains as measured by zone of inhibition (ZOI). […] Therefore, we conclude that the primary antimicrobial secreted by P. acidilactici UL5 was pediocin PA-1.\nWe then proceeded to clone the pediocin operon from P. acidilactici UL5 into pSIP-P27 vector for heterologous expression in other lactic acid bacteria viz. Lactiplantibacillus plantarum WCFS1, Lactococcus cremoris MG1363 and the well-established expression host, E. coli MG1655. The pediocin operon imparted anti-listerial activity to the L. plantarum culture supernatant but not to that of L. cremoris or E. coli (Figure 1A). […] The peptide using this method was purified 189-fold with specific activity of 9,434 AU·mg^−1 as measured by agar-well diffusion method (Figure 1B, Figure S2A–C). […]"}, "E. coli": {"test_system": "E. coli", "assay": "Cell-binding assay by flow cytometry", "conditions": "Table S1", "experimental": "as §3"}, "L. casei": {"test_system": "L. casei", "assay": "Cell-binding assay by flow cytometry", "design": "species or system Lacticaseibacillus casei", "conditions": "Table S1", "experimental": "as §3"}, "[3]": {"assay_type": "physicochemical", "description": "We then proceeded to clone the pediocin operon from P. acidilactici UL5 into pSIP-P27 vector for heterologous expression in other lactic acid bacteria viz. Lactiplantibacillus plantarum WCFS1, Lactococcus cremoris MG1363 and the well-established expression host, E. coli MG1655. The pediocin operon imparted anti-listerial activity to the L. plantarum culture supernatant but not to that of L. cremoris or E. coli (Figure 1A). Based on the degree of bioactivity, we concluded that the level of recombinant pediocin PA-1 accumulated in L. plantarum culture was […] that observed for P. acidilactici UL5 and was therefore not pursued further. Thus, for subsequent studies, we isolated pediocin PA-1 from P. acidilactici UL5 directly using the cell adsorption-desorption approach (Figure S2). […] We attempted to further purify the preparation using reverse phase HPLC with minimal enhancement in purity but a significant loss in yield (Figure S3). The peptide recovered after cell adsorption-desorption and dialysis was lyophilized for long-term storage to minimize any loss in activity. The peptide using this method was purified 189-fold with specific activity of 9,434 AU·mg^−1 as measured by agar-well diffusion method (Figure 1B, Figure S2A–C)."}, "B. subtilis": {"test_system": "B. subtilis", "assay": "Cell-binding assay by flow cytometry", "design": "species or system Bacillus subtilis", "experimental": "as §3"}, "L. cremoris": {"test_system": "L. cremoris", "assay": "Cell-binding assay by flow cytometry", "design": "species or system Lactococcus cremoris", "conditions": "Table S1, organism printed as L. lactis", "experimental": "as §3"}, "L. seeligeri": {"test_system": "L. seeligeri", "assay_type": "cell-based, Listeria seeligeri", "conditions": "Figure 1C; start OD600 0.05, 96-well plate, growth at 600 nm after 24 h; 3 pM to 3 μM, 10-fold serial dilutions; read-out: EC50 (kill-curve)", "experimental": "as §1, §2\nFigure S7. Growth inhibition of L. seeligeri by modified and unmodified pediocin PA-1."}, "[4]": {"conditions": "Table S1, maximum mean fluorescence intensity"}, "[5]": {"conditions": "flow cytometry, Atto488 conjugate up to 2 μM, 4 °C 30 min, 1 % BSA, 100 mM NaCl, Hill fit, read-out: Apparent KD"}, "[6]": {"conditions": "signal did not saturate, read-out: Apparent KD"}},
  "note": "Marks after values point to notes of the source that are not given here.",
  "data": [
    {"substance": "biosynthetic pediocin PA-1: class IIa bacteriocin partially purified from P. acidilactici UL5 by cell adsorption-desorption (KYYGNGVTCGKHSCSVDWGKATTCIINNGAMAWATGGHQGNHKC; UniProt P29430 19-62, looked up)", "values": [
      {"measurement": "EC50", "setting": "L. coryniformis [1]", "value": "~1", "unit": "nM"},
      {"measurement": "Hill co-efficient", "setting": "L. coryniformis [2]; Table S1, fit MFI = MFImax[S]^n/(KD^n+[S]^n)", "value": 1.4},
      {"measurement": "MFImax (×10^3)", "setting": "L. coryniformis [2]; [4]", "value": "6.3 ± 0.3 ×10^3"},
      {"measurement": "Kd", "setting": "L. coryniformis [2]; [5]", "value": "46 ± 8", "unit": "nM"},
      {"measurement": "specific activity", "setting": "indicator strains", "value": "9,434 AU·mg^−1"},
      {"measurement": "Hill co-efficient", "setting": "E. coli", "value": 0.9},
      {"measurement": "Kd", "setting": "E. coli; [6]", "value": "> 2000", "unit": "nM"},
      {"measurement": "Hill co-efficient", "setting": "L. casei", "value": 0.7},
      {"measurement": "MFImax (×10^3)", "setting": "L. casei; signal did not saturate", "value": ">2* ×10^3"},
      {"measurement": "Kd", "setting": "L. casei; [6]", "value": "> 2000", "unit": "nM"},
      {"measurement": "stability of recovered peptide (in words)", "setting": "[3]", "value": "the peptide recovered at the acidic pH was found to be more stable"},
      {"measurement": "Hill co-efficient", "setting": "B. subtilis; Table S1, Hill fit", "value": 0.9},
      {"measurement": "MFImax (×10^3)", "setting": "B. subtilis; [4]", "value": "7 ± 1 ×10^3"},
      {"measurement": "Kd", "setting": "B. subtilis; [5]", "value": "467 ± 167", "unit": "nM"},
      {"measurement": "Hill co-efficient", "setting": "L. cremoris", "value": 0.7},
      {"measurement": "Kd", "setting": "L. cremoris; [6]", "value": "> 2000", "unit": "nM"},
      {"measurement": "EC50", "setting": "L. seeligeri", "value": "~13.3", "unit": "nM"}
    ]}
  ]
}
